In US20180246095A1, “COMPOSITIONS AND METHODS FOR DIAGNOSING AND TREATING LYME DISEASE” (priority 2015, published 2018):

Tested on: B. burgdorferi B31
Assay: RNA-Seq gene expression profile of B. burgdorferi persisters that survived antibiotic treatment, compared with drug free control
Assay type: cell-based, Borrelia burgdorferi
Method: RNA Sequencing (RNA-Seq) was performed to determine the gene expression profile of B. burgdorferi persisters that survived antibiotic treatment using next generation sequencing to shed light on the mechanisms of B. burgdorferi persistence. B. burgdorferi B31 cultures were grown for 5 days to 1×10^7 spirochetes/ml in BSK-H medium followed by treatment with 50 μg/ml doxycycline or 50 μg/ml amoxicillin for 6 days. Triplicate biological samples were used for each group. The total RNA was extracted and ribosomal RNA was removed prior to preparation of cDNA libraries for Illumina sequencing. […] The RNA-Seq data was analyzed by BLAST analysis and mapped to KEGG pathways.

CC1(C)S[C@@H]2[C@H](NC(=O)[C@H](N)c3ccc(O)cc3)C(=O)N2[C@H]1C(=O)O [Amo]
Expression BB_U05 (gene BB_U05, PF-32 protein): 0 | Expression BB_U06 (gene BB_U06, plasmid partition protein): 0 | Expression BB_U07 (gene BB_U07, protein BBC01): 0 | Expression BB_U08 (gene BB_U08, SUA5 subfamily protein): 0 | Expression BB_U09 (gene BB_U09, TM2 family protein): 0 | Expression BB_U10 (gene BB_U10, protein BBC01): 0 | Expression BB_U11 (gene BB_U11, Sua5/YciO/YrdC/YwlC family protein): 0 | Expression BB_t19 (gene BB_t19, Ser tRNA): 7 | Expression BB_t26 (gene BB_t26, Arg tRNA): 0 | Expression BB_t27 (gene BB_t27, Leu tRNA): 2 | Expression BB_L35 (gene bdrO BB_L35, protein BdrO): 0 | Expression BB_N34 (gene bdrQ BB_N34, BdrQ): 1 | Expression BB_Q34 (gene bdrW BB_Q34, protein BdrW protein): 1 | Expression BB_L23 (gene blyA BB_L23, holin protein): 0 | Expression BB_L24 (gene blyB BB_L24, holin protein): 0 | Expression BB_L36 (gene bppA BB_L36, protein BppA): 0 | Expression BB_L37 (gene bppB BB_L37, protein BppB): 1 | Expression BB_Q47 (gene erpX BB_Q47, protein ErpX): 0 | Expression BB_L28 (gene mlpH BB_L28, lipoprotein): 1 | Expression BB_t16 (gene tRNA-Arg-3 BB_t16, Arg tRNA): 3 | Expression BB_t08 (gene tRNA-His-1 BB_t08, His tRNA): 0 | Expression BB_t07 (gene tRNA-Lys-2 BB_t07, Lys tRNA): 0 | Expression BB_t14 (gene tRNA-Thr-2 BB_t14, Thr tRNA): 0 | Expression BB_t03 (gene tRNA-Trp-1 BB_t03, Trp tRNA): 1 | Expression BB_I16 (gene vraA BB_I16, repetitive antigen A): 0 | Expression BB_0368 (glycerol-3-phosphate dehydrogenase): 95 | Expression BB_0185 (glycoprotease family protein): 50 | Expression blyB BB_R24 (hemolysin accessory protein): 0 | Expression blyA BB_M23 (holin protein): 0 | Expression blyA BB_N23 (holin protein): 50 | Expression blyA BB_P23 (holin protein): 64 | Expression blyA BB_S23 (holin protein): 0 | Expression blyB BB_N24 (holin protein): 0 | Expression blyB BB_S24 (holin protein): 0 | Expression BB_0024 (hypothetical protein): 390 | Expression BB_0029 (hypothetical protein): 114 | Expression BB_0044 (hypothetical protein): 0 | Expression BB_0102 (hypothetical protein): 53 | Expression BB_0162 (hypothetical protein): 401 | Expression BB_0238 (hypothetical protein): 26 | Expression BB_0242 (hypothetical protein): 2 | Expression BB_0252 (hypothetical protein): 497 | Expression BB_0308 (hypothetical protein): 0 | Expression BB_0322 (hypothetical protein): 1 | Expression BB_0331 (hypothetical protein): 5 | Expression BB_0336 (hypothetical protein): 61 | Expression BB_0352 (hypothetical protein): 66 | Expression BB_0367 (hypothetical protein): 176 | Expression BB_0373 (hypothetical protein): 4 | Expression BB_0378 (hypothetical protein): 129 | Expression BB_0428 (hypothetical protein): 627 | Expression BB_0525 (hypothetical protein): 73 | Expression BB_0549 (hypothetical protein): 0 | Expression BB_0576 (hypothetical protein): 140 | Expression BB_0646 (hypothetical protein): 444 | Expression BB_0663 (hypothetical protein): 533 | Expression BB_0673 (hypothetical protein): 15 | Expression BB_0707 (hypothetical protein): 35 | Expression BB_0739 (hypothetical protein): 51 | Expression BB_0799 (hypothetical protein): 2 | Expression BB_0824 (hypothetical protein): 98 | Expression BB_0838a (hypothetical protein): 4 | Expression BB_A09 (hypothetical protein): 50 | Expression BB_A13 (hypothetical protein): 256 | Expression BB_A61 (hypothetical protein): 133 | Expression BB_D22 (hypothetical protein): 5 | Expression BB_D24 (hypothetical protein): 0 | Expression BB_D0027 (hypothetical protein): 0 | Expression BB_G33 (hypothetical protein): 13 | Expression BB_G34 (hypothetical protein): 439 | Expression BB_H05 (hypothetical protein): 23 | Expression BB_H27 (hypothetical protein): 4 | Expression BB_J13 (hypothetical protein): 5 | Expression BB_J19 (hypothetical protein): 3 | Expression BB_J24 (hypothetical protein): 0 | Expression BB_J46 (hypothetical protein): 17 | Expression BB_J47 (hypothetical protein): 69 | Expression BB_J0056 (hypothetical protein): 13 | Expression BB_L19 (hypothetical protein): 24 | Expression BB_L20 (hypothetical protein): 22 | Expression BB_L25 (hypothetical protein): 13 | Expression BB_L26 (hypothetical protein): 1 | Expression BB_L41 (hypothetical protein): 0 | Expression BB_M12 (hypothetical protein): 0 | Expression BB_M13 (hypothetical protein): 0 | Expression BB_M14 (hypothetical protein): 0 | Expression BB_M15 (hypothetical protein): 0 | Expression BB_M17 (hypothetical protein): 0 | Expression BB_M25 (hypothetical protein): 0 | Expression BB_M30 (hypothetical protein): 0 | Expression BB_M39 (hypothetical protein): 0 | Expression BB_M41 (hypothetical protein): 0 | Expression BB_N20 (hypothetical protein): 68 | Expression BB_N30 (hypothetical protein): 1 | Expression BB_N41 (hypothetical protein): 47 | Expression BB_O02 (hypothetical protein): 0 | Expression BB_O03 (hypothetical protein): 0 | Expression BB_O04 (hypothetical protein): 0 | Expression BB_O05 (hypothetical protein): 0 | Expression BB_O06 (hypothetical protein): 0 | Expression BB_O08 (hypothetical protein): 0 | Expression BB_O09 (hypothetical protein): 0 | Expression BB_O10 (hypothetical protein): 0 | Expression BB_O13 (hypothetical protein): 0 | Expression BB_O29 (hypothetical protein): 46 | Expression BB_O31 (hypothetical protein): 0 | Expression BB_P20 (hypothetical protein): 288 | Expression BB_P21 (hypothetical protein): 291 | Expression BB_P30 (hypothetical protein): 5 | Expression BB_Q27 (hypothetical protein): 36 | Expression BB_Q28 (hypothetical protein): 22 | Expression BB_Q32 (hypothetical protein): 14 | Expression BB_Q33 (hypothetical protein): 147 | Expression BB_Q38 (hypothetical protein): 0 | Expression BB_Q39 (hypothetical protein): 0 | Expression BB_Q54 (hypothetical protein): 1 | Expression BB_Q62 (hypothetical protein): 1 | Expression BB_Q0091 (hypothetical protein): 6 | Expression BB_R20 (hypothetical protein): 73 | Expression BB_R25 (hypothetical protein): 43 | Expression BB_R26 (hypothetical protein): 393 | Expression BB_R29 (hypothetical protein): 252 | Expression BB_R31 (hypothetical protein): 0 | Expression BB_R43 (hypothetical protein): 111 | Expression BB_S06 (hypothetical protein): 0 | Expression BB_S08 (hypothetical protein): 0 | Expression BB_S11 (hypothetical protein): 0 | Expression BB_S12 (hypothetical protein): 0 | Expression BB_S13 (hypothetical protein): 0 | Expression BB_S14 (hypothetical protein): 0 | Expression BB_S18 (hypothetical protein): 0 | Expression BB_S19 (hypothetical protein): 0 | Expression BB_S20 (hypothetical protein): 0 | Expression BB_S21 (hypothetical protein): 11 | Expression BB_S25 (hypothetical protein): 120 | Expression BB_S33 (hypothetical protein): 29 | Expression BB_0316 (integral membrane protein): 36 | Expression BB_0580 (integral membrane protein): 210 | Expression BB_0193 (lipoprotein): 15 | Expression BB_0628 (lipoprotein): 158 | Expression BB_0664 (lipoprotein): 142 | Expression BB_0832 (lipoprotein): 753 | Expression BB_B27 (lipoprotein): 42 | Expression BB_D10 (lipoprotein): 51 | Expression BB_J36 (lipoprotein): 90 | Expression mlpF BB_M28 (lipoprotein): 0 | Expression la7 BB_0365 (lipoprotein LA7): 112 | Expression BB_0593 (long-chain-fatty-acid CoA ligase): 24 | Expression BB_0353 (membrane protein): 31 | Expression BB_0759 (membrane protein): 1041 | Expression BB_0143 (membrane protein insertion efficiency factor): 1085 | Expression BB_0034 (outer membrane protein P13): 41 | Expression BB_M01 (phage portal protein): 0 | Expression pstC BB_0216 (phosphate ABC transporter permease PstC): 128 | Expression BB_0727 (phosphofructokinase): 48 | Expression BB_H29 (plasmid partition protein): 0 | Expression proS BB_0402 (proline--tRNA ligase): 87 | Expression bdrF BB_S29 (protein BdrF): 15 | Expression bdrV BB_Q42 (protein BdrV): 1 | Expression erpM BB_O40 (protein ErpM): 0 | Expression BB_H13 (protein RepU): 3 | Expression BB_A69 (putative surface protein): 98 | Expression ksgA BB_0590 (rRNA small subunit methyltransferase A): 177 | Expression dnaB BB_0111 (replicative DNA helicase): 144 | Expression BB_0419 (response regulator): 34 | Expression lepB BB_0263 (signal peptidase I): 98 | Expression BB_0453 (small conductance mechanosensitive ion channel): 467 | Expression BB_0641 (spermidine/putrescine transport system permease): 70 | Expression BB_0153 (superoxide dismutase): 202 | Expression BB_I39 (surface antigen): 8 | Expression BB_0225 (tRNA-dihydrouridine synthase A): 194 | Expression rho BB_0230 (transcription termination factor Rho): 22 | Expression BB_0025 (transcriptional regulator): 272 | Expression infA BB_0169 (translation initiation factor IF-1): 522 | Expression ung BB_0053 (uracil-DNA glycosylase): 1626 | Expression udk BB_0015 (uridine kinase): 37 | Expression BB_0831 (xylose operon regulatory protein): 122
